{
  "source": "patent US8791105B2",
  "about": "“Methods for alleviating chronic pain and improving performance of cattle undergoing dehorning or castration” (Kansas State University Research Foundation, priority 2010, dated 2014)",
  "key": {"[1]": {"assay": "Pen-level performance (ADG, DMI, G:F) of bulls castrated on arrival and steers (Example 4)", "format": "in vivo, cross-bred beef calves", "settings": "for ADG: pen-level mean estimate", "description": "This study was designed as a stratified 2-arm parallel trial. […] Calves were maintained on open pens that consisted of a combination of concrete aprons and dirt pens. […] Upon arrival, calves were unloaded and sorted (d 0).\nProcessing and surgical castration was performed by the same operator to minimize variation in procedure. […] Briefly, the scrotum of each calf was cleaned with dilute chlorohexidine disinfectant and incised longitudinally with a Newberry knife (Jorgensen Lab, Loveland, Colo.). The testes and spermatic cords were exteriorized by blunt dissection and the cremaster was broken using manual traction. The spermatic cords were cut using a White's Double Crush emasculator (Jorgensen Lab, Loveland, Colo.) applied for approximately 30 seconds. Steers were subjected to the same handling procedures apart from knife cutting and castration.\nAfter processing, calves were sorted into study pens. Calves from each load were ranked by BW and systematically allocated to pens based upon weight, gonadal status, and treatment group. For each of the 3 loads, 2 pens were assigned to each of the 4 treatment groups for a total of 24 pens. After allocation each pen contained 8 to 14 calves of the same treatment subclass: 6 pens of 10 to 14 calves in the CONT-CAST group, 6 pens of 10 to 14 calves in the MEL-CAST group, 6 pens of 8 to 10 calves in the […] group and 6 pens of 8 to 11 calves in the MEL-STR group. All pens were 12 m×16 m with 12 m of bunk space and one water source per pen. Calves were reweighed on day 14. Additionally, calves were revaccinated with the viral respiratory vaccine (Pyramid 5+ Presponse SQ, Fort Dodge Animal Health, Wyeth, Madison, N.J.) and given a pour-on eprinomectin at 500 μg/kg BW (Eprinex, Merial Limited, Duluth, Ga.) at this time. Final BW was obtained at the end of the study on day 28.\nAll animals were individually weighed on arrival (day 0), prior to feeding at revaccination on day 14, and at the end of the study on day 28. Conditions were standardized for all animals at each time point. Feed consumption for each pen was determined on a daily basis by subtracting the weight of feed remaining at the next feeding from the total feed weight assigned to the pen. When animals were removed for health reasons, the amount of feed delivered to the pen and the corresponding animal gain in the pen were adjusted accordingly so that calculations for ADG, DMI and corresponding G:F were based on the number of calves remaining in the pen. Animal health data recorded for each calf identified as sick included the pull date, the individual animal identification number, body temperature, clinical score, a presumptive diagnosis, BW, and treatment.\nThe ancillary production variables (ADG, days on feed [DOF], and daily DMI) were calculated for all animals that completed the feeding period.\nA general linear mixed model was fit to each performance response (DMI, ADG, G:F ratio) measured at the pen level. […] Random effects fit on the linear predictor included Lot as a blocking factor. Repeated observations within a pen were modeled using a compound symmetry residual variance-covariance structure. For DMI, the residual variance-covariance was expanded to accommodate heterogeneous variances at each time period. […] Newton-Raphson with ridging was the estimation algorithm implemented."}, "[2]": {"test_system": "calves with induced lameness", "assay": "Pressure mat gait analysis in amphotericin B induced lameness", "format": "in vivo, British x Continental beef calves", "settings": "PO once daily for 4 days from 4 h after lameness induction; mean ±SEM", "description": "After acclimatization, lameness was induced as previously described (Kotschwar et al, 2009). More specifically, chemical synovitis/arthritis was induced with an injection of 20 mg amphotericin B (X-Gen Pharmaceuticals, Inc, Big Flats, N.Y.) into the left hind distal interphalangeal joint of each calf (Period 2). All calves were first restrained in a chute with a head gate as conducted through the acclimatization period, and the hind leg was restrained with ropes at the fetlock and stifle. […]\nAnimal activity was assessed continuously with pedometers.\nA commercially available floor mat-based pressure/force measurement system (MatScan, Tekscan, Inc., South Boston, Mass.) was used to record and analyze the affected feet of each calf. […] Using research grade software (HUGEMAT Research 5.83, Tekscan, Inc., South Boston, Mass.), contact pressure, contact area, and stance phase duration in the affected feet were measured. Surface area was calculated by area only of the loaded or “contact” sensing elements inside the measurement box. Contact pressure was calculated as force on the loaded sensing elements inside the measurement box divided by the contact area."}, "[3]": {"assay": "Pharmacokinetics of oral meloxicam and gabapentin in the bovine lameness study (Example 6)", "settings": "meloxicam 0.5 mg/kg PO; Period 2, once daily for 4 days; mean ±SD"}, "[4]": {"settings": "bulls (castrated), 1 mg/kg per os 24 h prior, d1-14"}, "[5]": {"settings": "bulls (castrated), 1 mg/kg per os 24 h prior, d15-28"}, "[6]": {"settings": "steers, 1 mg/kg per os 24 h prior to processing, d1-14"}, "[7]": {"settings": "steers, 1 mg/kg per os 24 h prior to processing, d15-28"}},
  "data": [
    {"smiles": "Cc1cnc(NC(=O)C2=C(O)c3ccccc3S(=O)(=O)N2C)s1", "note": "[meloxicam, 4-hydroxy-2-methyl-N-(5-methyl-2-thiazolyl)-2H-1,2-benzothiazine-3-carboxamide-1,1-dioxide]", "values": [
      {"measurement": "DMI", "setting": "[1]; [4]", "value": 4.80, "unit": "kg"},
      {"measurement": "G:F", "setting": "[1]; [4]", "value": 0.19},
      {"measurement": "ADG", "setting": "[1]; [4]", "value": 0.95, "unit": "kg"},
      {"measurement": "DMI", "setting": "[1]; [5]", "value": 7.01, "unit": "kg"},
      {"measurement": "G:F", "setting": "[1]; [5]", "value": 0.21},
      {"measurement": "ADG", "setting": "[1]; [5]", "value": 1.50, "unit": "kg"},
      {"measurement": "DMI", "setting": "[1]; [6]", "value": 5.06, "unit": "kg"},
      {"measurement": "G:F", "setting": "[1]; [6]", "value": 0.30},
      {"measurement": "ADG", "setting": "[1]; [6]", "value": 1.51, "unit": "kg"},
      {"measurement": "DMI", "setting": "[1]; [7]", "value": 7.23, "unit": "kg"},
      {"measurement": "G:F", "setting": "[1]; [7]", "value": 0.20},
      {"measurement": "ADG", "setting": "[1]; [7]", "value": 1.46, "unit": "kg"},
      {"measurement": "effect of meloxicam administration on DMI", "setting": "[1]; vs placebo, p=0.73", "value": "no evidence of an effect"},
      {"measurement": "effect of meloxicam administration on G:F", "setting": "[1]; vs placebo, p=0.73", "value": "no evidence of an effect"},
      {"measurement": "effect of meloxicam administration on ADG", "setting": "[1]; vs placebo, p=0.972", "value": "no evidence of an effect"},
      {"measurement": "contact force", "setting": "[2]", "value": "869.80 ± 54.96", "unit": "kg"},
      {"measurement": "stride length", "setting": "[2]", "value": "72.82±1.59", "unit": "cm"},
      {"measurement": "Caverage", "setting": "[3]", "value": "3810 ± 960", "unit": "ng/mL"},
      {"measurement": "Cmax", "setting": "[3]", "value": "4690 ± 1050", "unit": "ng/mL"}
    ]}
  ]
}
